The source of these data is PMC3433414, “Oral Administration of the Pimelic Diphenylamide HDAC Inhibitor HDACi 4b Is Unsuitable for Chronic Inhibition of HDAC Activity in the CNS In Vivo” (PLoS ONE, 2012).

The conditions of series [1]: dissolved upon heating; room temperature; cited from earlier work.
The subject of series [2] is R6/2 mice. To be noted: cited from earlier work.
For series [3], the system named is histone acetylation in mouse brain. Nature of the series: Histone acetylation in brain tissue (central pharmacodynamics). The settings on record: 200 mg/kg sc; positive control.
Procedure: Cortical tissue from the mice was assessed using specific antibodies for increases in acetylation of specific lysine residues on Histones H3 (H3K4, H3K9, H3K14) and H4 (H4K5) as well as global acetylation of H3 (Ac-H3) and H4 (Ac-H4). The acetylation level was normalized to total H3 and H4 expression level. The samples from the rest of the brain were analyzed for terminal 4b levels at the time of sacrifice. […] Mouse brains were harvested, dissected, immediately frozen in liquid nitrogen and stored at −80°C. Mouse brain tissue was homogenized (polytron homogenizer, 20 s) in 2 volumes of histone extraction buffer (1×PBS, 5% Triton X-100 (v/v), 3 mM DTT, 1 mM orthovanadate, 5 mM NaF, 1 mM PMSF, 5 mM Na Butyrate, Roche complete protease inhibitor tablet) and centrifuged at 900 g for 8 min at 4°C. The resulting pellet was washed twice in 1 ml of histone extraction buffer before being re-suspended in 2–3 volumes of 0.2 M HCl. Samples were then vortexed briefly and left to shake vigorously for 3 h at 4°C using a VXR Vibrax 1.5 ml polypropylene tube shaker (IKA). After shaking, samples were centrifuged at 900 g for 8 min at 4°C and the resulting supernatant was retained and neutralized with 0.2 volumes of 1 M NaOH.

Turning to `O=C(CCCCCCC(=O)Nc1ccccc1)NO` [SAHA], the stability in cyclodextrins result in series [1] was “stable for seven days”. In addition, the “motor dysfunction (rotarod performance, grip strength)” value in series [2] (drinking water) is listed as “significant improvement in motor dysfunction”. Also, in series [2] (in drinking water), the maximum tolerated dose is listed as 0.67 g/L. Also, the “histone acetylation in cortical tissue” value in series [3] is “robust enhancement of acetylation of H3K9, H4K5, and total acetylated levels of H3 and H4”.
